Reference: ChEMBL document CHEMBL1156542, “Facile radiosynthesis of fluorine-18 labeled beta-blockers. Synthesis, radiolabeling, and ex vivo biodistribution of [18F]-(2S and 2R)-1-(1-fluoropropan-2-ylamino)-3-(m-tolyloxy)propan-2-ol” (J Med Chem, 2008)

Tests used:
[1] = Lipophilicity, log P at pH 7.4; format: physicochemical; details: buffer
Hippocampus [2] = assay: Biodistribution in Sprague-Dawley rat hippocampus at 70 uCi, iv after 5 mins; format: ADME, organism-based; details: in vivo
Cortex [3] = assay: Biodistribution in Sprague-Dawley rat rest of cortex at 70 uCi, iv after 15 mins; format: ADME, organism-based; details: in vivo, 0.25 h
Heart [4] = assay: Biodistribution in Sprague-Dawley rat heart at 70 uCi, iv after 5 mins; format: ADME, organism-based; details: in vivo
[5] = Metabolic stability in Sprague-Dawley rat plasma at 70 uCi, iv after 15 mins; format: ADME, organism-based; details: read-out: Stability
Hypothalamus [6] = assay: Biodistribution in Sprague-Dawley rat hypothalamus at 70 uCi, iv after 60 mins; format: ADME, organism-based; details: in vivo, 1 h
Brain [7] = assay: Biodistribution in Sprague-Dawley rat rest of brain at 70 uCi, iv after 5 mins; format: ADME, organism-based; details: in vivo
Cortex [8] = assay: Biodistribution in Sprague-Dawley rat rest of cortex at 70 uCi, iv after 30 mins; format: ADME, organism-based; details: in vivo, 0.5 h
[9] = Metabolic stability in Sprague-Dawley rat plasma at 70 uCi, iv after 60 mins; format: ADME, organism-based; details: read-out: Stability
[10] = Biodistribution in Sprague-Dawley rat frontal cortex at 70 uCi, iv after 5 mins; format: ADME, organism-based; details: in vivo
Striatum [11] = assay: Biodistribution in Sprague-Dawley rat striatum at 70 uCi, iv after 5 mins; format: ADME, organism-based; details: in vivo
Plasma [12] = assay: Biodistribution in Sprague-Dawley rat plasma at 70 uCi, iv after 60 mins; format: ADME, organism-based; details: in vivo, 1 h
Striatum [13] = assay: Biodistribution in Sprague-Dawley rat striatum at 70 uCi, iv after 15 mins; format: ADME, organism-based; details: in vivo, 0.25 h
Bone [14] = assay: Biodistribution in Sprague-Dawley rat bone at 70 uCi, iv after 60 mins; format: ADME, organism-based, Bone element; details: in vivo, 1 h
Brain [15] = assay: Biodistribution in Sprague-Dawley rat rest of brain at 70 uCi, iv after 15 mins; format: ADME, organism-based; details: in vivo, 0.25 h
Striatum [16] = assay: Biodistribution in Sprague-Dawley rat striatum at 70 uCi, iv after 60 mins; format: ADME, organism-based; details: in vivo, 1 h
Hypothalamus [17] = assay: Biodistribution in Sprague-Dawley rat hypothalamus at 70 uCi, iv after 30 mins; format: ADME, organism-based; details: in vivo, 0.5 h
Thalamus [18] = assay: Biodistribution in Sprague-Dawley rat thalamus at 70 uCi, iv after 60 mins; format: ADME, organism-based; details: in vivo, 1 h
[19] = Biodistribution in Sprague-Dawley rat frontal cortex at 70 uCi, iv after 15 mins; format: ADME, organism-based; details: in vivo, 0.25 h
Plasma [20] = assay: Biodistribution in Sprague-Dawley rat plasma at 70 uCi, iv after 15 mins; format: ADME, organism-based; details: in vivo, 0.25 h
[21] = Biodistribution in Sprague-Dawley rat frontal cortex at 70 uCi, iv after 30 mins; format: ADME, organism-based; details: in vivo, 0.5 h
Brain [22] = assay: Biodistribution in Sprague-Dawley rat rest of brain at 70 uCi, iv after 30 mins; format: ADME, organism-based; details: in vivo, 0.5 h
Hippocampus [23] = assay: Biodistribution in Sprague-Dawley rat hippocampus at 70 uCi, iv after 15 mins; format: ADME, organism-based; details: in vivo, 0.25 h
[24] = Biodistribution in Sprague-Dawley rat frontal cortex at 70 uCi, iv after 60 mins; format: ADME, organism-based; details: in vivo, 1 h
Brain [25] = assay: Biodistribution in Sprague-Dawley rat rest of brain at 70 uCi, iv after 60 mins; format: ADME, organism-based; details: in vivo, 1 h
Hypothalamus [26] = assay: Biodistribution in Sprague-Dawley rat hypothalamus at 70 uCi, iv after 5 mins; format: ADME, organism-based; details: in vivo
[27] = Metabolic stability in Sprague-Dawley rat plasma at 70 uCi, iv after 30 mins; format: ADME, organism-based; details: read-out: Stability
Hippocampus [28] = assay: Biodistribution in Sprague-Dawley rat hippocampus at 70 uCi, iv after 30 mins; format: ADME, organism-based; details: in vivo, 0.5 h
Bone [29] = assay: Biodistribution in Sprague-Dawley rat bone at 70 uCi, iv after 15 mins; format: ADME, organism-based, Bone element; details: in vivo, 0.25 h
Heart [30] = assay: Biodistribution in Sprague-Dawley rat heart at 70 uCi, iv after 60 mins; format: ADME, organism-based; details: in vivo, 1 h
Heart [31] = assay: Biodistribution in Sprague-Dawley rat heart at 70 uCi, iv after 30 mins; format: ADME, organism-based; details: in vivo, 0.5 h
[32] = Metabolic stability in Sprague-Dawley rat plasma at 70 uCi, iv after 5 mins; format: ADME, organism-based; details: read-out: Stability
Thalamus [33] = assay: Biodistribution in Sprague-Dawley rat thalamus at 70 uCi, iv after 15 mins; format: ADME, organism-based; details: in vivo, 0.25 h
Cerebellum [34] = assay: Biodistribution in Sprague-Dawley rat cerebellum at 70 uCi, iv after 30 mins; format: ADME, organism-based; details: in vivo, 0.5 h
Bone [35] = assay: Biodistribution in Sprague-Dawley rat bone at 70 uCi, iv after 5 mins; format: ADME, organism-based, Bone element; details: in vivo
Cerebellum [36] = assay: Biodistribution in Sprague-Dawley rat cerebellum at 70 uCi, iv after 5 mins; format: ADME, organism-based; details: in vivo
Plasma [37] = assay: Biodistribution in Sprague-Dawley rat plasma at 70 uCi, iv after 5 mins; format: ADME, organism-based; details: in vivo
Striatum [38] = assay: Biodistribution in Sprague-Dawley rat striatum at 70 uCi, iv after 30 mins; format: ADME, organism-based; details: in vivo, 0.5 h
Thalamus [39] = assay: Biodistribution in Sprague-Dawley rat thalamus at 70 uCi, iv after 5 mins; format: ADME, organism-based; details: in vivo
Thalamus [40] = assay: Biodistribution in Sprague-Dawley rat thalamus at 70 uCi, iv after 30 mins; format: ADME, organism-based; details: in vivo, 0.5 h
Cerebellum [41] = assay: Biodistribution in Sprague-Dawley rat cerebellum at 70 uCi, iv after 15 mins; format: ADME, organism-based; details: in vivo, 0.25 h
Plasma [42] = assay: Biodistribution in Sprague-Dawley rat plasma at 70 uCi, iv after 30 mins; format: ADME, organism-based; details: in vivo, 0.5 h
Bone [43] = assay: Biodistribution in Sprague-Dawley rat bone at 70 uCi, iv after 30 mins; format: ADME, organism-based, Bone element; details: in vivo, 0.5 h
Cortex [44] = assay: Biodistribution in Sprague-Dawley rat rest of cortex at 70 uCi, iv after 5 mins; format: ADME, organism-based; details: in vivo
Hypothalamus [45] = assay: Biodistribution in Sprague-Dawley rat hypothalamus at 70 uCi, iv after 15 mins; format: ADME, organism-based; details: in vivo, 0.25 h
Hippocampus [46] = assay: Biodistribution in Sprague-Dawley rat hippocampus at 70 uCi, iv after 60 mins; format: ADME, organism-based; details: in vivo, 1 h
Cerebellum [47] = assay: Biodistribution in Sprague-Dawley rat cerebellum at 70 uCi, iv after 60 mins; format: ADME, organism-based; details: in vivo, 1 h
Heart [48] = assay: Biodistribution in Sprague-Dawley rat heart at 70 uCi, iv after 15 mins; format: ADME, organism-based; details: in vivo, 0.25 h
Cortex [49] = assay: Biodistribution in Sprague-Dawley rat rest of cortex at 70 uCi, iv after 60 mins; format: ADME, organism-based; details: in vivo, 1 h
[50] = molecular target: Beta-1 adrenergic receptor (Homo sapiens, UniProt P08588); assay: Binding affinity to beta-1 adrenergic receptor
Sequence of Beta-1 adrenergic receptor (P08588 whole entry): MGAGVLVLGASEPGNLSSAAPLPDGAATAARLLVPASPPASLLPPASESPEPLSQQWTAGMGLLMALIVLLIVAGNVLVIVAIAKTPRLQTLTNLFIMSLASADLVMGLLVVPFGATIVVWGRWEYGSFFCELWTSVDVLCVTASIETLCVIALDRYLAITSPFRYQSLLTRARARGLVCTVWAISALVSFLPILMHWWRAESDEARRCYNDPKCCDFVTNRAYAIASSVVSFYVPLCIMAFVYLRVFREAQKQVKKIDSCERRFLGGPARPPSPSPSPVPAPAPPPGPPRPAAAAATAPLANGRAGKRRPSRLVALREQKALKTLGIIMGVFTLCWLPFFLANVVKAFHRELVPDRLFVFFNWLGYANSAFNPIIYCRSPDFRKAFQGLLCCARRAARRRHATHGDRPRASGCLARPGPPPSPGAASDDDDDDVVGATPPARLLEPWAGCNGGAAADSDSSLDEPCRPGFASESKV

[51] = molecular target: Beta-2 adrenergic receptor (Homo sapiens, UniProt P07550); assay: Binding affinity to beta2 adrenergic receptor
Sequence of Beta-2 adrenergic receptor (P07550 whole entry): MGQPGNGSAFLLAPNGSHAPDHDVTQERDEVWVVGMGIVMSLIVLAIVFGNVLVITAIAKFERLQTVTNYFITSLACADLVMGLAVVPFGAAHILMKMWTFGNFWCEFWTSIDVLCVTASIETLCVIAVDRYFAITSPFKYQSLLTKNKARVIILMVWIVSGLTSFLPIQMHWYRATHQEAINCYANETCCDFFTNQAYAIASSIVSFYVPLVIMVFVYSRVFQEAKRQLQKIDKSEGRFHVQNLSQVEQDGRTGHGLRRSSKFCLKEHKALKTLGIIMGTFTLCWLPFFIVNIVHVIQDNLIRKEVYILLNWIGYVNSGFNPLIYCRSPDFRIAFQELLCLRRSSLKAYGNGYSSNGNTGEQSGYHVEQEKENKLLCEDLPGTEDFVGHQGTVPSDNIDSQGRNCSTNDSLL

SMILES: CC(CF)NCC(O)COc1cccc2[nH]c3ccccc3c12 (stereo not drawn) [FLUOROCARAZOLOL]
- logD [1]: 2.2

SMILES: Cc1cccc(OC[11C@@H](O)CNC(C)C)c1
- logD [1]: 0.2

SMILES: Cc1cccc(OC[C@H](O)CNC(C)C[18F])c1 (stereo partly drawn)
- Drug uptake (Hippocampus [2]): 1.01 % ID/g
- Drug uptake (Cortex [3]): 0.55 % ID/g
- Drug uptake (Heart [4]): 0.51 % ID/g
- remaining at 0.25 h [5]: 25.5%
- Drug uptake (Hypothalamus [6]): 0.09 % ID/g
- Drug uptake (Brain [7]): 0.88 % ID/g
- Drug uptake (Cortex [8]): 0.29 % ID/g
- remaining at 1 h [9]: 7.7%
- Drug uptake [10]: 1.3 % ID/g
- Drug uptake (Striatum [11]): 1.04 % ID/g
- Drug uptake (Plasma [12]): 0.07 % ID/g
- Drug uptake (Striatum [13]): 0.54 % ID/g
- Drug uptake (Bone [14]): 0.25 % ID/g
- Drug uptake (Brain [15]): 0.47 % ID/g
- Drug uptake (Striatum [16]): 0.11 % ID/g
- Drug uptake (Hypothalamus [17]): 0.23 % ID/g
- Drug uptake (Thalamus [18]): 0.12 % ID/g
- Drug uptake [19]: 0.59 % ID/g
- Drug uptake (Plasma [20]): 0.13 % ID/g
- Drug uptake [21]: 0.29 % ID/g
- Drug uptake (Brain [22]): 0.25 % ID/g
- Drug uptake (Hippocampus [23]): 0.6 % ID/g
- Drug uptake [24]: 0.12 % ID/g
- Drug uptake (Brain [25]): 0.1 % ID/g
- Drug uptake (Hypothalamus [26]): 0.92 % ID/g
- remaining at 0.5 h [27]: 12.6%
- Drug uptake (Hippocampus [28]): 0.31 % ID/g
- Drug uptake (Bone [29]): 0.22 % ID/g
- Drug uptake (Heart [30]): 0.07 % ID/g
- Drug uptake (Heart [31]): 0.15 % ID/g
- remaining at 5 min [32]: 61.9%
- Drug uptake (Thalamus [33]): 0.62 % ID/g
- logD [1]: 1.79
- Drug uptake (Cerebellum [34]): 0.23 % ID/g
- Drug uptake (Bone [35]): 0.3 % ID/g
- Drug uptake (Cerebellum [36]): 0.82 % ID/g
- Drug uptake (Plasma [37]): 0.16 % ID/g
- Drug uptake (Striatum [38]): 0.26 % ID/g
- Drug uptake (Thalamus [39]): 1.19 % ID/g
- Drug uptake (Thalamus [40]): 0.3 % ID/g
- Drug uptake (Cerebellum [41]): 0.43 % ID/g
- Drug uptake (Plasma [42]): 0.13 % ID/g
- Drug uptake (Bone [43]): 0.3 % ID/g
- Drug uptake (Cortex [44]): 1.12 % ID/g
- Drug uptake (Hypothalamus [45]): 0.46 % ID/g
- Drug uptake (Hippocampus [46]): 0.12 % ID/g
- Drug uptake (Cerebellum [47]): 0.08 % ID/g
- Drug uptake (Heart [48]): 0.26 % ID/g
- Drug uptake (Cortex [49]): 0.11 % ID/g

SMILES: Cc1cccc(OC[C@@H](O)CNC(C)C)c1 [(S)-TOLIPROLOL]
- Kd [50]: 0.38 nM
- Kd [51]: 1.2 nM

SMILES: CC(C)NCC(O)COc1cccc2[nH]c3ccccc3c12 (stereo not drawn) [CARAZOLOL]
- logD [1]: 1.36

SMILES: Cc1cccc(OC[C@@H](O)CNC(C)C[18F])c1 (stereo partly drawn)
- Drug uptake (Hippocampus [2]): 0.91 % ID/g
- Drug uptake (Cortex [3]): 0.62 % ID/g
- Drug uptake (Heart [4]): 0.59 % ID/g
- remaining at 0.25 h [5]: 28.6%
- Drug uptake (Hypothalamus [6]): 0.09 % ID/g
- Drug uptake (Brain [7]): 0.84 % ID/g
- Drug uptake (Cortex [8]): 0.29 % ID/g
- remaining at 1 h [9]: 11.9%
- Drug uptake [10]: 1.21 % ID/g
- Drug uptake (Striatum [11]): 0.97 % ID/g
- Drug uptake (Plasma [12]): 0.08 % ID/g
- Drug uptake (Striatum [13]): 0.59 % ID/g
- Drug uptake (Bone [14]): 0.18 % ID/g
- Drug uptake (Brain [15]): 0.5 % ID/g
- Drug uptake (Striatum [16]): 0.11 % ID/g
- Drug uptake (Hypothalamus [17]): 0.22 % ID/g
- Drug uptake (Thalamus [18]): 0.11 % ID/g
- Drug uptake [19]: 0.67 % ID/g
- Drug uptake (Plasma [20]): 0.13 % ID/g
- Drug uptake [21]: 0.3 % ID/g
- Drug uptake (Brain [22]): 0.24 % ID/g
- Drug uptake (Hippocampus [23]): 0.63 % ID/g
- Drug uptake [24]: 0.12 % ID/g
- Drug uptake (Brain [25]): 0.1 % ID/g
- Drug uptake (Hypothalamus [26]): 0.77 % ID/g
- remaining at 0.5 h [27]: 16.4%
- Drug uptake (Hippocampus [28]): 0.31 % ID/g
- Drug uptake (Bone [29]): 0.21 % ID/g
- Drug uptake (Heart [30]): 0.06 % ID/g
- Drug uptake (Heart [31]): 0.15 % ID/g
- remaining at 5 min [32]: 59.2%
- Drug uptake (Thalamus [33]): 0.65 % ID/g
- logD [1]: 1.68
- Drug uptake (Cerebellum [34]): 0.21 % ID/g
- Drug uptake (Bone [35]): 0.18 % ID/g
- Drug uptake (Cerebellum [36]): 0.75 % ID/g
- Drug uptake (Plasma [37]): 0.16 % ID/g
- Drug uptake (Striatum [38]): 0.27 % ID/g
- Drug uptake (Thalamus [39]): 1.03 % ID/g
- Drug uptake (Thalamus [40]): 0.29 % ID/g
- Drug uptake (Cerebellum [41]): 0.46 % ID/g
- Drug uptake (Plasma [42]): 0.13 % ID/g
- Drug uptake (Bone [43]): 0.18 % ID/g
- Drug uptake (Cortex [44]): 1.12 % ID/g
- Drug uptake (Hypothalamus [45]): 0.5 % ID/g
- Drug uptake (Hippocampus [46]): 0.12 % ID/g
- Drug uptake (Cerebellum [47]): 0.08 % ID/g
- Drug uptake (Heart [48]): 0.26 % ID/g
- Drug uptake (Cortex [49]): 0.11 % ID/g
